Assay results reported in ChEMBL document CHEMBL3045244, “Design and synthesis of novel piperazine unit condensed 2,6-diarylpiperidin-4-one derivatives as antituberculosis and antimicrobial agents” (2012).
In brackets after ≈: the same amount, converted by molar mass. Activity calls are given as the source filed them. No cut-off for these calls is given here.

Tests used:
[1] = tested on: Aspergillus flavus; test: Antifungal activity against Aspergillus flavus ATCC 470 after 72 to 96 hr by two-fold serial dilution method; type: functional
[2] = tested on: Aspergillus niger; test: Antifungal activity against Aspergillus niger ATCC 591 after 72 to 96 hr by two-fold serial dilution method; type: functional
[3] = tested on: Rhizopus; test: Antifungal activity against Rhizopus sp. ATCC 2920 after 72 to 96 hr by two-fold serial dilution method; type: functional
[4] = tested on: Candida albicans; test: Antifungal activity against Candida albicans ATCC 3130 after 72 to 96 hr by two-fold serial dilution method; type: functional
[5] = tested on: Cryptococcus neoformans; test: Antifungal activity against Cryptococcus neoformans ATCC 3315 after 72 to 96 hr by two-fold serial dilution method; type: functional
[6] = tested on: Klebsiella pneumoniae; test: Antibacterial activity against Klebsiella pneumoniae ATCC 15499 after 24 hr by two-fold serial dilution method; type: functional; settings: ATCC 15499, 24 h
[7] = tested on: Escherichia coli; test: Antibacterial activity against Escherichia coli ATCC 25840 after 24 hr by two-fold serial dilution method; type: functional; settings: ATCC 25840, 24 h
[8] = tested on: Salmonella typhi; test: Antibacterial activity against Salmonella enterica subsp. enterica serovar Typhi ATCC 24930 after 24 hr by two-fold serial dilution method; type: functional; settings: ATCC 24930, 24 h
[9] = tested on: Bacillus subtilis; test: Antibacterial activity against Bacillus subtilis ATCC 461 after 24 hr by two-fold serial dilution method; type: functional; settings: ATCC 461, 24 h
[10] = tested on: Staphylococcus aureus; test: Antibacterial activity against Staphylococcus aureus ATCC 25833 after 24 hr by two-fold serial dilution method; type: functional; settings: ATCC 25833, 24 h
[11] = tested on: Mycobacterium tuberculosis; test: Antituberculosis activity against Mycobacterium tuberculosis H37Rv ATCC 27294 after 21 days by BACTEC based radiometric respiratory technique; type: functional; settings: H37Rv ATCC 27294, 504 h
[12] = tested on: Aspergillus flavus; test: Antifungal activity against Aspergillus flavus ATCC 470 at 200 ug/ml after 72 to 96 hr by two-fold serial dilution method; type: functional, organism-based
[13] = tested on: Mycobacterium tuberculosis; test: Ratio of rifampicin MIC to compound MIC for Mycobacterium tuberculosis H37Rv ATCC 27294; type: functional
[14] = tested on: Mycobacterium tuberculosis; test: Ratio of isoniazid MIC to compound MIC for Mycobacterium tuberculosis H37Rv ATCC 27294; type: functional
[15] = tested on: Staphylococcus aureus; test: Antibacterial activity against Staphylococcus aureus ATCC 25833 at 200 ug/ml after 24 hr by two-fold serial dilution method; type: functional, organism-based
[16] = tested on: Aspergillus niger; test: Antifungal activity against Aspergillus niger ATCC 591 at 200 ug/ml after 72 to 96 hr by two-fold serial dilution method; type: functional, organism-based
[17] = tested on: Klebsiella pneumoniae; test: Antibacterial activity against Klebsiella pneumoniae ATCC 15499 at 200 ug/ml after 24 hr by two-fold serial dilution method; type: functional, organism-based
[18] = tested on: Salmonella typhi; test: Antibacterial activity against Salmonella enterica subsp. enterica serovar Typhi ATCC 24930 at 200 ug/ml after 24 hr by two-fold serial dilution method; type: functional, organism-based
[19] = tested on: Candida albicans; test: Antifungal activity against Candida albicans ATCC 3130 at 200 ug/ml after 72 to 96 hr by two-fold serial dilution method; type: functional, organism-based
[20] = tested on: Bacillus subtilis; test: Antibacterial activity against Bacillus subtilis ATCC 461 at 200 ug/ml after 24 hr by two-fold serial dilution method; type: functional, organism-based

| SMILES | MIC [1] | MIC [2] | MIC [3] | MIC [4] | MIC [5] | MIC [6] | MIC [7] | MIC [8] | MIC [9] | MIC [10] | MIC [11] | Ratio [13] | Ratio [14] | further results |
| --- | --- | --- | --- | --- | --- | --- | --- | --- | --- | --- | --- | --- | --- | --- |
| CCOC(=O)N1CCN(CC(=O)N2C(c3ccc(F)cc3)CC(=O)C(C)C2c2ccc(F)cc2)CC1 (centres undefined) | 25 µg/mL (≈ 50 µM) | 100 µg/mL (≈ 200 µM) | 100 µg/mL (≈ 200 µM) | 25 µg/mL (≈ 50 µM) | 25 µg/mL (≈ 50 µM) | 12.5 µg/mL (≈ 25 µM) | 100 µg/mL (≈ 200 µM) | 25 µg/mL (≈ 50 µM) | 25 µg/mL (≈ 50 µM) | 50 µg/mL (≈ 100 µM) | > 256 µg/mL | – | – | – |
| C[C@@H]1[C@H](O)[C@@H](C)/C=C/C=C/C=C/C=C/C=C/C=C/C=C/[C@H](O[C@@H]2O[C@H](C)[C@@H](O)[C@H](N)[C@@H]2O)C[C@@H]2O[C@](O)(C[C@@H](O)C[C@@H](O)[C@H](O)CC[C@@H](O)C[C@@H](O)CC(=O)O[C@H]1C)C[C@H](O)[C@H]2C(=O)O [AMPHOTERICIN B] | 50 µg/mL (≈ 54.1 µM) | 50 µg/mL (≈ 54.1 µM) | 25 µg/mL (≈ 27.1 µM) | 25 µg/mL (≈ 27.1 µM) | 25 µg/mL (≈ 27.1 µM) | – | – | – | – | – | – | – | – | – |
| CCOC(=O)N1CCN(CC(=O)N2C(c3ccc(Cl)cc3)C(C)C(=O)C(C)C2c2ccc(Cl)cc2)CC1 (centres undefined) | – | 50 µg/mL (≈ 91.5 µM) | 25 µg/mL (≈ 45.7 µM) | 100 µg/mL (≈ 183 µM) | 200 µg/mL (≈ 366 µM) | 50 µg/mL (≈ 91.5 µM) | 100 µg/mL (≈ 183 µM) | 25 µg/mL (≈ 45.7 µM) | 50 µg/mL (≈ 91.5 µM) | 50 µg/mL (≈ 91.5 µM) | 16 µg/mL (≈ 29.3 µM) | 200 | 1.56 | Activity [12]: inactive |
| CCOC(=O)N1CCN(CC(=O)N2C(c3ccc(C)cc3)CC(=O)C(C)C2c2ccc(C)cc2)CC1 (centres undefined) | 200 µg/mL (≈ 407 µM) | 50 µg/mL (≈ 102 µM) | 200 µg/mL (≈ 407 µM) | 200 µg/mL (≈ 407 µM) | 50 µg/mL (≈ 102 µM) | 100 µg/mL (≈ 203 µM) | 50 µg/mL (≈ 102 µM) | 200 µg/mL (≈ 407 µM) | 100 µg/mL (≈ 203 µM) | – | > 256 µg/mL | – | – | Activity [15]: inactive |
| CCOC(=O)N1CCN(CC(=O)N2C(c3ccccc3)CC(=O)C(CC)C2c2ccccc2)CC1 (centres undefined) | 12.5 µg/mL (≈ 26.2 µM) | – | 100 µg/mL (≈ 209 µM) | 12.5 µg/mL (≈ 26.2 µM) | 25 µg/mL (≈ 52.3 µM) | – | 25 µg/mL (≈ 52.3 µM) | 100 µg/mL (≈ 209 µM) | 50 µg/mL (≈ 105 µM) | 200 µg/mL (≈ 419 µM) | 16 µg/mL (≈ 33.5 µM) | 200 | 1.56 | Activity [16]: inactive; Activity [17]: inactive |
| CCOC(=O)N1CCN(CC(=O)N2C(c3ccc(F)cc3)CC(=O)C(CC)C2c2ccc(F)cc2)CC1 (centres undefined) | 100 µg/mL (≈ 195 µM) | 12.5 µg/mL (≈ 24.3 µM) | 12.5 µg/mL (≈ 24.3 µM) | 50 µg/mL (≈ 97.4 µM) | 100 µg/mL (≈ 195 µM) | 12.5 µg/mL (≈ 24.3 µM) | 12.5 µg/mL (≈ 24.3 µM) | 50 µg/mL (≈ 97.4 µM) | 100 µg/mL (≈ 195 µM) | 100 µg/mL (≈ 195 µM) | 64 µg/mL (≈ 125 µM) | 50 | 0.39 | – |
| CCOC(=O)N1CCN(CC(=O)N2C(c3cccc(F)c3)CC(=O)C(C)C2c2cccc(F)c2)CC1 (centres undefined) | 100 µg/mL (≈ 200 µM) | 25 µg/mL (≈ 50 µM) | 50 µg/mL (≈ 100 µM) | 6.25 µg/mL (≈ 12.5 µM) | 12.5 µg/mL (≈ 25 µM) | 6.25 µg/mL (≈ 12.5 µM) | 6.25 µg/mL (≈ 12.5 µM) | – | 100 µg/mL (≈ 200 µM) | 50 µg/mL (≈ 100 µM) | > 256 µg/mL | – | – | Activity [18]: inactive |
| CCOC(=O)N1CCN(CC(=O)N2C(c3cccc(F)c3)C(C)C(=O)C(C)C2c2cccc(F)c2)CC1 (centres undefined) | – | 6.25 µg/mL (≈ 12.2 µM) | 12.5 µg/mL (≈ 24.3 µM) | 100 µg/mL (≈ 195 µM) | 25 µg/mL (≈ 48.7 µM) | 100 µg/mL (≈ 195 µM) | 50 µg/mL (≈ 97.4 µM) | – | 12.5 µg/mL (≈ 24.3 µM) | 6.25 µg/mL (≈ 12.2 µM) | 16 µg/mL (≈ 31.2 µM) | 200 | 1.56 | Activity [1]: inactive; Activity [18]: inactive |
| CCOC(=O)N1CCN(CC(=O)N2C(c3ccccc3)CC(=O)C(C)C2c2ccccc2)CC1 (centres undefined) | 200 µg/mL (≈ 431 µM) | 100 µg/mL (≈ 216 µM) | 200 µg/mL (≈ 431 µM) | – | 50 µg/mL (≈ 108 µM) | 200 µg/mL (≈ 431 µM) | 50 µg/mL (≈ 108 µM) | 100 µg/mL (≈ 216 µM) | 50 µg/mL (≈ 108 µM) | 100 µg/mL (≈ 216 µM) | > 256 µg/mL | – | – | Activity [19]: inactive |
| CCOC(=O)N1CCN(CC(=O)N2C(c3ccc(OC)cc3)C(C)C(=O)C(C)C2c2ccc(OC)cc2)CC1 (centres undefined) | 100 µg/mL (≈ 186 µM) | 100 µg/mL (≈ 186 µM) | 50 µg/mL (≈ 93 µM) | – | 200 µg/mL (≈ 372 µM) | 100 µg/mL (≈ 186 µM) | 200 µg/mL (≈ 372 µM) | 100 µg/mL (≈ 186 µM) | 50 µg/mL (≈ 93 µM) | 100 µg/mL (≈ 186 µM) | 16 µg/mL (≈ 29.8 µM) | 200 | 1.56 | – |
| CCOC(=O)N1CCN(CC(=O)N2C(c3ccccc3)C(C)C(=O)C(C)C2c2ccccc2)CC1 (centres undefined) | 100 µg/mL (≈ 209 µM) | 100 µg/mL (≈ 209 µM) | 100 µg/mL (≈ 209 µM) | 100 µg/mL (≈ 209 µM) | 25 µg/mL (≈ 52.3 µM) | 50 µg/mL (≈ 105 µM) | 25 µg/mL (≈ 52.3 µM) | – | – | 200 µg/mL (≈ 419 µM) | – | – | – | Activity [20]: inactive |
| CO[C@H]1/C=C/O[C@@]2(C)Oc3c(C)c(O)c4c(O)c(c(/C=N/N5CCN(C)CC5)c(O)c4c3C2=O)NC(=O)/C(C)=C\C=C\[C@H](C)[C@H](O)[C@@H](C)[C@@H](O)[C@@H](C)[C@H](OC(C)=O)[C@@H]1C [RIFAMPIN] | – | – | – | – | – | – | – | – | – | – | 32 µg/mL (≈ 38.9 µM) | – | – | – |
| CC1(C)S[C@@H]2[C@H](NC(=O)Cc3ccccc3)C(=O)N2[C@H]1C(=O)O [PENICILLIN G] | – | – | – | – | – | 25 µg/mL (≈ 74.8 µM) | 12.5 µg/mL (≈ 37.4 µM) | 50 µg/mL (≈ 150 µM) | 12.5 µg/mL (≈ 37.4 µM) | 50 µg/mL (≈ 150 µM) | – | – | – | – |
| NNC(=O)c1ccncc1 [ISONIAZID] | – | – | – | – | – | – | – | – | – | – | 0.25 µg/mL (≈ 1.82 µM) | – | – | – |
